± gives the standard deviation of the averaged measurements.
Key:
Assay in all cases: CTG-3D luminescence at 96 h relative to day-0 seeding control (ratio to day 0); higher = more growth / less cytotoxicity; PDxO 3D drug screen, 96 h, CTG-3D normalised to day-0 seeding control.
HCI-019 = system: HCI-019 (organoid from a triple-negative breast cancer xenograft)
HCI-015 = system: HCI-015 (organoid from a triple-negative breast cancer xenograft)
HCI-003.E2 = system: HCI-003.E2 (organoid from an ER-positive breast cancer xenograft)
HCI-016 = system: HCI-016 (organoid from a triple-negative breast cancer xenograft)
HCI-025 = system: HCI-025 (organoid from a breast cancer xenograft)
HCI-005.E2 = system: HCI-005.E2 (organoid from a breast cancer xenograft with a HER2-positive history)

COc1cc2c(Oc3ccc4[nH]c(C)cc4c3F)ncnc2cc1OCCCN1CCCC1 [cediranib]
CTG-3D luminescence at 96 h
Conditions | 12.5 pM | 0.00025 µM | 0.005 µM | 0.1 µM | 1 µM | 10 µM | 100 µM | 625 fM
HCI-015, days in culture: 172 | 2.29 | 1.76 | 2.22 | 1.47 | 2.43 | 0.0376 | -0.0013 | 2.51
HCI-015, days in culture: 191 | 2.09 | 1.61 | 1.52 | 1.16 | 1.39 | 0.0236 | -0.00165 | 1.33
HCI-015, days in culture: 218 | 1.26 | 1.53 | 1.55 | 1.85 | 1.49 | 0.0308 | -0.00209 | 1.68
HCI-016, days in culture: 153 | 3.21 | 2.24 | 2.18 | 2.54 | 3.03 | 0.161 | -0.00356 | 2.44
HCI-016, days in culture: 172 | 2.32 | 2.05 | 1.6 | 1.62 | 1.55 | 0.397 | -0.000672 | 1.64
HCI-016, days in culture: 190 | 1.57 | 1.2 | 1.45 | 1.43 | 1.44 | 0.423 | 5.93e-05 | 1.13
HCI-016, days in culture: 199 | 1.23 | 1.38 | 1.17 | 1.65 | 1.57 | 0.0517 | -0.0032 | 1.73
HCI-019, days in culture: 110 | 1.88 | 1.82 | 1.98 | 2.39 | 1.07 | 0.1 | -0.00352 | 2.01
HCI-019, days in culture: 131 | 2.89 | 3.08 | 3.29 | 3.43 | 1.59 | 0.0352 | -0.00454 | 3.39
HCI-019, days in culture: 152 | 2.41 | 3.23 | 2.62 | 1.68 | 0.851 | 0.22 | 0.000827 | 2.04
HCI-025, days in culture: 172 | 2.66 | 1.84 | 3.42 | 1.99 | 2.79 | 0.0165 | -0.00438 | 2.12
HCI-025, days in culture: 209 | 1.77 | 1.18 | 1.76 | 1.47 | 2.18 | 0.022 | -0.00409 | 1.31
HCI-025, days in culture: 218 | 1.52 | 1.84 | 2.1 | 1.73 | 1.5 | 0.0433 | -0.00599 | 1.86

CTG-3D luminescence at 96 h
Conditions | 12.5 pM | 0.00025 µM | 0.005 µM | 0.1 µM | 1 µM | 10 µM | 100 µM | 625 fM
HCI-003.E2 | 2.13 ± 0.86 | 2.53 ± 0.78 | 2.12 ± 0.35 | 2.33 ± 0.4 | 1.95 ± 0.42 | 0.251 ± 0.12 | 0.0212 ± 0.037 | 2.18 ± 0.54
HCI-005.E2 | 1.5 ± 0.57 | 1.54 ± 0.47 | 1.77 ± 0.21 | 1.68 ± 0.29 | 1.11 ± 0.26 | 0.322 ± 0.095 | 0.0129 ± 0.024 | 1.54 ± 0.24

C[C@@H]1COCCN1c1cc(C2([S@](C)(=N)=O)CC2)nc(-c2cc[nH]c3nccc2-3)n1 [ceralasertib]
CTG-3D luminescence at 96 h
Conditions | 12.5 pM | 0.00025 µM | 0.005 µM | 0.1 µM | 1 µM | 10 µM | 100 µM | 625 fM
HCI-015, days in culture: 172 | 2.39 | 2.46 | 2.2 | 1.24 | 2.01 | 0.531 | 0.385 | 2.27
HCI-015, days in culture: 191 | 1.99 | 1.33 | 1.19 | 1.08 | 1.25 | 0.413 | 0.258 | 1.52
HCI-015, days in culture: 218 | 1.79 | 1.5 | 1.72 | 1.55 | 1.2 | 0.408 | 0.265 | 1.58
HCI-016, days in culture: 153 | 3.13 | 2.07 | 1.95 | 2.28 | 1.72 | 0.113 | 0.0761 | 2.11
HCI-016, days in culture: 172 | 2.3 | 1.91 | 1.66 | 1.88 | 1.12 | 0.141 | 0.0786 | 1.92
HCI-016, days in culture: 190 | 1.54 | 1.14 | 1.72 | 1.27 | 1.11 | 0.1 | 0.0608 | 1.28
HCI-016, days in culture: 199 | 1.42 | 1.55 | 1.36 | 1.25 | 0.986 | 0.0835 | 0.0684 | 1.6
HCI-019, days in culture: 110 | 1.9 | 1.2 | 1.15 | 2 | 0.748 | 0.526 | 0.468 | 1.62
HCI-019, days in culture: 131 | 2.22 | 3.35 | 3.06 | 3.3 | 1.98 | 0.424 | 0.71 | 3.75
HCI-019, days in culture: 152 | 2.6 | 2.77 | 2.34 | 2.22 | 1.1 | 0.604 | 0.499 | 2.45
HCI-025, days in culture: 172 | 2.29 | 1.93 | 3.61 | 2.46 | 1.59 | 0.359 | 0.297 | 1.92
HCI-025, days in culture: 209 | 1.3 | 1.6 | 1.64 | 1 | 0.856 | 0.386 | 0.184 | 1.38
HCI-025, days in culture: 218 | 1.86 | 1.85 | 2.07 | 1.64 | 0.97 | 0.482 | 0.269 | 1.88

CTG-3D luminescence at 96 h
Conditions | 12.5 pM | 0.00025 µM | 0.005 µM | 0.1 µM | 1 µM | 10 µM | 100 µM | 625 fM
HCI-003.E2 | 2.11 ± 0.55 | 2.23 ± 0.58 | 2.12 ± 0.52 | 2.45 ± 0.55 | 1.51 ± 0.34 | 0.353 ± 0.13 | 0.0571 ± 0.035 | 2.11 ± 0.35
HCI-005.E2 | 1.83 ± 0.65 | 1.7 ± 0.29 | 1.86 ± 0.41 | 1.9 ± 0.35 | 1.16 ± 0.36 | 0.849 ± 0.25 | 0.6 ± 0.14 | 1.78 ± 0.4
